Data published in US20240382483A1, “HETEROCYCLIC EGFR INHIBITORS FOR USE IN THE TREATMENT OF CANCER” (Blueprint Medicines Corporation, priority 2021, published 2024).

Assays:
[1] = target: T1, intracellular phosphorylation of EGFR in NCI-H1975 cell line that harbors the EGFR L858R T790M mutations (Homo sapiens, UniProt P00533, L858R/T790M); test: NCI-H1975 pEGFR AlphaLISA assay; format: cell-based; settings: NCI-H1975 cells (EGFR L858R T790M), p-EGFR (Tyr1068), 4-5 hours incubation; read-out: Ext pEGFR H1975 GMean IC50 (nM) Protocol: @Pharmaron AlphaLISA (Num)
T1 construct: NCI-H1975 cell line that harbors the EGFR L858R T790M mutations (ATCC, CRL-5908); host or cells: NCI-H1975
T1 sequence (P00533 25-1210 T790M/L858R): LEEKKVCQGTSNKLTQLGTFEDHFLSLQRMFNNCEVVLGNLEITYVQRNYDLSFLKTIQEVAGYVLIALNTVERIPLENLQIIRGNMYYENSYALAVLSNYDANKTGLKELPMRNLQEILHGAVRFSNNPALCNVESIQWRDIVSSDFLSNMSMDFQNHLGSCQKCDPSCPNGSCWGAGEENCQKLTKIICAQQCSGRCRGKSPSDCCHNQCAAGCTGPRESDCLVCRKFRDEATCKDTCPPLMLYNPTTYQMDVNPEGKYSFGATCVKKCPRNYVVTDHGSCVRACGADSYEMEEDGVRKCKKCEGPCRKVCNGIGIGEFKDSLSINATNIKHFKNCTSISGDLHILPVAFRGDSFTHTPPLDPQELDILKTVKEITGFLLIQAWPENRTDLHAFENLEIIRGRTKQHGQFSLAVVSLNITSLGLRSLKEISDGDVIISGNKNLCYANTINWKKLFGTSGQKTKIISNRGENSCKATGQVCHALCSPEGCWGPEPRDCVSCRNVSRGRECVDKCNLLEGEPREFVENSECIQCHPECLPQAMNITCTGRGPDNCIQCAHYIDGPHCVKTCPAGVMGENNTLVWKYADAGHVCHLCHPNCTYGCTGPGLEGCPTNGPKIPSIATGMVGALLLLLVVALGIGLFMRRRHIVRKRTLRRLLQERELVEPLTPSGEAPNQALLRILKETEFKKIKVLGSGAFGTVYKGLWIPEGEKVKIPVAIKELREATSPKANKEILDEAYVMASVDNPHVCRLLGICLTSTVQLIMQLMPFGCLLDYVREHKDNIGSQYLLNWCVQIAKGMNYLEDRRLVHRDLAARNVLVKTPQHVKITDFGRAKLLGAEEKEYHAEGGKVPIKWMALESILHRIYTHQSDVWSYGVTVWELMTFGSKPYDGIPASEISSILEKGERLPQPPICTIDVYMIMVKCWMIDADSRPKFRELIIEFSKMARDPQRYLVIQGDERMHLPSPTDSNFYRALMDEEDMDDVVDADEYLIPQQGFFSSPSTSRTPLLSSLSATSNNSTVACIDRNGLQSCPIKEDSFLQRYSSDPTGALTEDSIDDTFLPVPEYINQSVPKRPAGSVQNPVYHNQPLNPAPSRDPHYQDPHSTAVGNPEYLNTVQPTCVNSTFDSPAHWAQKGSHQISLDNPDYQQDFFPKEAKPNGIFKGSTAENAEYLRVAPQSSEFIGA
Description: On the next day, the test compounds and DMSO control were added into H1975 cell plate followed by incubation at 37C/5% CO2 for 4-5 hours. […] Then 5 μL of a donor bead mix was added to each well followed by overnight incubation at room temperature in dark. On the next day, the plate was read at a compatible plate reader to obtain pEGFR signal. Percent of pEGFR inhibition was plotted against log concentration of compounds to generate IC50 values.

EGFR (L858R T790M C797S) = target: T2, EGFR (L858R T790M C797S) (Homo sapiens, UniProt P00533, C797S/L858R/T790M); test: Biochemical EGFR inhibition assay (Caliper mobility shift), EGFR LRTMCS; settings: LRTMCS (PH) IC50 (nM) @ 1 mM ATP (Num), EGFR LRTMCS mutant
T2 construct: purchased SignalChem E10-122VG
T2 sequence (P00533 25-1210 T790M/C797S/L858R): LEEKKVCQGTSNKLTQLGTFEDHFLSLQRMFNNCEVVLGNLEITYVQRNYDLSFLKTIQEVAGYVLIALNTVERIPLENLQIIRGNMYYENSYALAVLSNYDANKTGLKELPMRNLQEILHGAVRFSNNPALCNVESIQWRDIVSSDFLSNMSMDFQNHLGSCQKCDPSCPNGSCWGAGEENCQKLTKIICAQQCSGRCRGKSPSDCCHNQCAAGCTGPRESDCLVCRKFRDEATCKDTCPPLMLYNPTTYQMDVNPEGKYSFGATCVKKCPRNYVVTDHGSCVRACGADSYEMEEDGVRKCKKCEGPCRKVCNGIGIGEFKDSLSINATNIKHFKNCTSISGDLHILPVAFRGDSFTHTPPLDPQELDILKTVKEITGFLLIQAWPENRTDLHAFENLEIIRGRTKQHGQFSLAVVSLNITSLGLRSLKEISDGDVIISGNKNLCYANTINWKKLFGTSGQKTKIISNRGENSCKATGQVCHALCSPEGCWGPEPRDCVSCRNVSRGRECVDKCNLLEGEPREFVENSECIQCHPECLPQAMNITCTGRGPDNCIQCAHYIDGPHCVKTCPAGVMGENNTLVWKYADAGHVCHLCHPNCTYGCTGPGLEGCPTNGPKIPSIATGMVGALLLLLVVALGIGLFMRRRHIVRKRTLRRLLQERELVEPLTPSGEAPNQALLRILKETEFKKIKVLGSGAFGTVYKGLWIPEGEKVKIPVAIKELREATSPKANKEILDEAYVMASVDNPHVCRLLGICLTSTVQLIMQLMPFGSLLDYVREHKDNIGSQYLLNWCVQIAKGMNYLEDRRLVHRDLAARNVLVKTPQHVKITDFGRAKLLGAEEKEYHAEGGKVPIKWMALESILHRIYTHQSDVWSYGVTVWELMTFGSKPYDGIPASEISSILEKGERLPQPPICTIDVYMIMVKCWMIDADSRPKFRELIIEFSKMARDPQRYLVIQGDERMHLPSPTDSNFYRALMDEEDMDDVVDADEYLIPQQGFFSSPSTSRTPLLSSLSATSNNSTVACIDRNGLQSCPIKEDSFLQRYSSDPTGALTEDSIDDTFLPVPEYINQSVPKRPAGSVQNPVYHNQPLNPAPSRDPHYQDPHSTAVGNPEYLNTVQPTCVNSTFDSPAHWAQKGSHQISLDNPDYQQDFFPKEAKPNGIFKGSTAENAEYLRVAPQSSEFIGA
Summary of the method: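 Caliper mobility shift read-out: product and substrate peptides separated by electrophoresis and quantified. Reactions at 25° C. taken to 10–20% peptide phosphorylation, quenched with 35 mM EDTA. Apparent IC50 from percent activity vs log [compound].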

Row | SMILES | IC50 [1] [nM] | IC50 (EGFR (L858R T790M C797S)) [nM]
1 | CC(C)c1cnc(N2CC(C3COC3)C2)c2cnc(Nc3ccnc(N4CC[C@@H](O)[C@@](C)(F)C4)n3)cc12 [Example 101, (3S,4R)-3-fluoro-1-(4-((5-isopropyl-8-(3-(oxetan-3-yl)azetidin-1-yl)-2,7-naphthyridin-3-yl)amino)pyrimidin-2-yl)-3-methylpiperidin-4-ol] | 30 to 50 | < 15
2 | CC(C)c1ccc(N2CC3(CCS3(=O)=O)C2)c2cnc(Nc3ccnc(N4CC[C@@H](O)[C@@](C)(F)C4)n3)cc12 [Example 35, 6-(3-((2-((3S,4R)-3-fluoro-4-hydroxy-3-methylpiperidin-1-yl)pyrimidin-4-yl)amino)-5-isopropylisoquinolin-8-yl)-1-thia-6-azaspiro[3.3]heptane 1,1-dioxide] | < 10 | < 15
3 | CC(C)c1cnc(N2CCC23CN(C)C3)c2cnc(Nc3ccnc(N4CCC5(CCO5)CC4)n3)cc12 [Example 116, N-(2-(1-oxa-7-azaspiro[3.5]nonan-7-yl)pyrimidin-4-yl)-5-isopropyl-8-(6-methyl-1,6-diazaspiro[3.3]heptan-1-yl)-2,7-naphthyridin-3-amine] | > 50 | 20 to 30
4 | COCC1CN(c2ncc(C(C)C)c3cc(Nc4ccnc(N5CC[C@@H](O)[C@@](C)(F)C5)n4)ncc23)C1 [Example 66, (3S,4R)-3-fluoro-1-(4-((5-isopropyl-8-(3-(methoxymethyl)azetidin-1-yl)-2,7-naphthyridin-3-yl)amino)pyrimidin-2-yl)-3-methylpiperidin-4-ol] | 30 to 50 | 20 to 30
5 | CC(C)c1cnc(N2CCC23CNC3)c2cnc(Nc3ccnc(N4CC[C@@H](O)[C@@](C)(F)C4)n3)cc12 [Example 190, (3S,4R)-3-fluoro-1-(4-((5-isopropyl-8-(1,6-diazaspiro[3.3]heptan-1-yl)-2,7-naphthyridin-3-yl)amino)pyrimidin-2-yl)-3-methylpiperidin-4-ol] | > 50 | < 15
6 | CNC(=O)C1(F)CN(c2ncc(C(C)C)c3cc(Nc4ccnc(N5CC[C@@H](O)[C@@](C)(F)C5)n4)ncc23)C1 [Example 85, 3-fluoro-1-(6-((2-((3S,4R)-3-fluoro-4-hydroxy-3-methylpiperidin-1-yl)pyrimidin-4-yl)amino)-4-isopropyl-2,7-naphthyridin-1-yl)-N-methylazetidine-3-carboxamide] | 30 to 50 | 20 to 30
7 | CC(C)c1cnc(N2CCC23COC3)c2cnc(Nc3ccnc(N4CC[C@@H](O)[C@@](C)(F)C4)n3)cc12 [Example 53, (3S,4R)-3-fluoro-1-(4-((5-isopropyl-8-(6-oxa-1-azaspiro[3.3]heptan-1-yl)-2,7-naphthyridin-3-yl)amino)pyrimidin-2-yl)-3-methylpiperidin-4-ol] | 20 to 30 | < 15
8 | CC(C)c1cnc(N2C[C@H](n3ccnn3)[C@H]2C)c2cnc(Nc3ccnc(N4CC[C@@](C)(O)[C@@H](F)C4)n3)cc12 [Example 144, (3S,4R)-3-fluoro-1-(4-((5-isopropyl-8-((2R,3S)-2-methyl-3-(1H-1,2,3-triazol-1-yl)azetidin-1-yl)-2,7-naphthyridin-3-yl)amino)pyrimidin-2-yl)-4-methylpiperidin-4-ol] | 30 to 50 | 15 to 20
9 | C[C@@H]1[C@H](F)CN1c1ncc([C@@H](C)CO)c2cc(Nc3ccnc(N4CC[C@@H](O)[C@@](C)(F)C4)n3)ncc12 (single isomer, unassigned) [Example 209, (3S,4R)-3-fluoro-1-(4-((8-((2R,3R)-3-fluoro-2-methylazetidin-1-yl)-5-((R)-1-hydroxypropan-2-yl)-2,7-naphthyridin-3-yl)amino)pyrimidin-2-yl)-3-methylpiperidin-4-ol or (3S,4R)-3-fluoro-1-(4-((8-((2R,3R)-3-fluoro-2-methylazetidin-1-yl)-5-((S)-1-hydroxypropan-2-yl)-2,7-naphthyridin-3-yl)amino)pyrimidin-2-yl)-3-methylpiperidin-4-ol] | > 50 | 15 to 20
10 | CC(C)c1cnc(N2CC(n3ccnn3)C2)c2cnc(Nc3ccnc(N4CC[C@@H](O)[C@@](C)(F)C4)n3)cc12 [Example 89, (3S,4R)-1-(4-((8-(3-(1H-1,2,3-triazol-1-yl)azetidin-1-yl)-5-isopropyl-2,7-naphthyridin-3-yl)amino)pyrimidin-2-yl)-3-fluoro-3-methylpiperidin-4-ol] | < 10 | < 15
11 | C[C@@H]1[C@@H](O)CN1c1ncc(C2CC2)c2cc(Nc3ccnc(N4CC[C@@H](O)[C@@](C)(F)C4)n3)ncc12 [Example 102, (3S,4R)-1-(4-((5-cyclopropyl-8-((2R,3S)-3-hydroxy-2-methylazetidin-1-yl)-2,7-naphthyridin-3-yl)amino)pyrimidin-2-yl)-3-fluoro-3-methylpiperidin-4-ol] | > 50 | 20 to 30
12 | CC(C)c1cnc(N2CC(n3cncn3)C2)c2cnc(Nc3ccnc(N4CC[C@@H](O)[C@@](C)(F)C4)n3)cc12 [Example 88, (3S,4R)-1-(4-((8-(3-(1H-1,2,4-triazol-1-yl)azetidin-1-yl)-5-isopropyl-2,7-naphthyridin-3-yl)amino)pyrimidin-2-yl)-3-fluoro-3-methylpiperidin-4-ol] | 30 to 50 | < 15
13 | CO[C@H]1CCN(c2nccc(Nc3cc4c(C(C)C)ccc(N5C[C@H](c6nnco6)[C@H]5C)c4cn3)n2)C[C@@H]1O (single isomer, unassigned) [Example 217] | < 10 | 15 to 20
14 | CC(C)c1cnc(N2CCC2)c2cnc(Nc3ccnc(N4CC[C@@H](O)[C@@](C)(F)C4)n3)cc12 [Example 46, (3S,4R)-1-(4-((8-(azetidin-1-yl)-5-isopropyl-2,7-naphthyridin-3-yl)amino)pyrimidin-2-yl)-3-fluoro-3-methylpiperidin-4-ol] | 20 to 30 | < 15
15 | C[C@H](CC#N)c1cnc(N2CC[C@H]2C)c2cnc(Nc3ccnc(N4CC[C@@H](O)[C@@](C)(F)C4)n3)cc12 (single isomer, unassigned) [Example 36, (R)-3-(6-((2-((3S,4R)-3-fluoro-4-hydroxy-3-methylpiperidin-1-yl)pyrimidin-4-yl)amino)-1-((R)-2-methylazetidin-1-yl)-2,7-naphthyridin-4-yl)butanenitrile or (S)-3-(6-((2-((3S,4R)-3-fluoro-4-hydroxy-3-methylpiperidin-1-yl)pyrimidin-4-yl)amino)-1-((R)-2-methylazetidin-1-yl)-2,7-naphthyridin-4-yl)butanenitrile] | < 10 | < 15
16 | CO[C@H]1CCN(c2nccc(Nc3cc4c(C(C)C)ccc(N5C[C@H](c6nncn6C)[C@H]5C)c4cn3)n2)C[C@@H]1O (single isomer, unassigned) [Example 218] | 30 to 50 | < 15
17 | CC(C)c1cnc(N2C[C@H](O)[C@H]2C)c2cnc(Nc3ccnc(N4CC[C@](C)(O)[C@](C)(F)C4)n3)cc12 (single isomer, unassigned) [Example 170, (3R,4S)-3-fluoro-1-(4-((8-((2R,3S)-3-hydroxy-2-methylazetidin-1-yl)-5-isopropyl-2,7-naphthyridin-3-yl)amino)pyrimidin-2-yl)-3,4-dimethylpiperidin-4-ol or (3S,4R)-3-fluoro-1-(4-((8-((2R,3S)-3-hydroxy-2-methylazetidin-1-yl)-5-isopropyl-2,7-naphthyridin-3-yl)amino)pyrimidin-2-yl)-3,4-dimethylpiperidin-4-ol] | 20 to 30 | < 15
18 | CC(C)c1cnc(N2CC(C[S+]([O-])C(F)(F)F)C2)c2cnc(Nc3ccnc(N4CC[C@@H](O)[C@@](C)(F)C4)n3)cc12 (stereo partly drawn) [Example 100, (3S,4R)-3-fluoro-1-(4-((5-isopropyl-8-(3-(((trifluoromethyl)sulfinyl)methyl)azetidin-1-yl)-2,7-naphthyridin-3-yl)amino)pyrimidin-2-yl)-3-methylpiperidin-4-ol] | 10 to 20 | < 15
19 | CC(C)c1cnc(N2CC(O)C2)c2cnc(Nc3ccnc(N4CCC5(CCO5)CC4)n3)cc12 [Example 117, 1-(6-((2-(1-oxa-7-azaspiro[3.5]nonan-7-yl)pyrimidin-4-yl)amino)-4-isopropyl-2,7-naphthyridin-1-yl)azetidin-3-ol] | > 50 | 15 to 20
20 | CC(C)c1nnc(N2CC[C@H]2C(F)F)c2cnc(Nc3ccnc(N4CC[C@@H](O)[C@@](C)(F)C4)n3)cc12 (single isomer, unassigned) [Example 205, (3S,4R)-1-(4-((4-((S)-2-(difluoromethyl)azetidin-1-yl)-1-isopropylpyrido[3,4-d]pyridazin-7-yl)amino)pyrimidin-2-yl)-3-fluoro-3-methylpiperidin-4-ol or (3S,4R)-1-(4-((4-((R)-2-(difluoromethyl)azetidin-1-yl)-1-isopropylpyrido[3,4-d]pyridazin-7-yl)amino)pyrimidin-2-yl)-3-fluoro-3-methylpiperidin-4-ol] | > 50 | 30 to 100
